Data reported in the kinase profiling compilation of Christmann-Franck et al. (2016).

Legend:
Experiment in all cases: KINOMEscan competition binding
Details in all cases: compound 10.0 µM
[1] = target: AAK1 (human) (UniProt Q2M2I8)
[2] = target: ACVRL1 (human) (UniProt P37023)
[3] = target: AURKC (human) (UniProt Q9UQB9)
[4] = target: CAMK2A (human) (UniProt Q9UQM7)
[5] = target: CAMK2D (human) (UniProt Q13557)
[6] = target: CDC42BPA (human) (UniProt Q5VT25)
[7] = target: CDK18 (human) (UniProt Q07002)
[8] = target: CDK8 (human) (UniProt P49336)
[9] = target: DDR2 (human) (UniProt Q16832)
[10] = target: DYRK1B (human) (UniProt Q9Y463)
[11] = target: EPHB1 (human) (UniProt P54762)
[12] = test system: FLT3 (human), P36888 [ITD]
[13] = target: FRK (human) (UniProt P42685)
[14] = target: FYN (human) (UniProt P06241)
[15] = target: GSK3B (human) (UniProt P49841)
[16] = target: IKBKB (human) (UniProt O14920)
[17] = target: MAP2K4 (human) (UniProt P45985)
[18] = target: MAP4K1 (human) (UniProt Q92918)
[19] = target: MAP4K3 (human) (UniProt Q8IVH8)
[20] = target: MAPK13 (human) (UniProt O15264)
[21] = target: MAPK14 (human) (UniProt Q16539)
[22] = target: MAPK3 (human) (UniProt P27361)
[23] = target: MARK1 (human) (UniProt Q9P0L2)
[24] = target: MARK4 (human) (UniProt Q96L34)
[25] = target: MKNK1 (human) (UniProt Q9BUB5)
[26] = target: NEK2 (human) (UniProt P51955)
[27] = target: NTRK2 (human) (UniProt Q16620)
[28] = target: PAK4 (human) (UniProt O96013)
[29] = target: PIM2 (human) (UniProt Q9P1W9)
[30] = target: RAF1 (human) (UniProt P04049)
[31] = target: RPS6KA4 KD2 (human) (UniProt O75676)
[32] = target: RPS6KA5 KD1 (human) (UniProt O75582)
[33] = target: SIK1 (human) (UniProt P57059)
[34] = target: STK11 (human) (UniProt Q15831)
[35] = target: STK32C (human) (UniProt Q86UX6)
[36] = target: STK36 (human) (UniProt Q9NRP7)
[37] = target: SYK (human) (UniProt P43405)
[38] = target: TLK1 (human) (UniProt Q9UKI8)
[39] = target: TTK (human) (UniProt P33981)
[40] = target: WEE1 (human) (UniProt P30291)

FYN (human), sequence (P06241 whole entry, looked up): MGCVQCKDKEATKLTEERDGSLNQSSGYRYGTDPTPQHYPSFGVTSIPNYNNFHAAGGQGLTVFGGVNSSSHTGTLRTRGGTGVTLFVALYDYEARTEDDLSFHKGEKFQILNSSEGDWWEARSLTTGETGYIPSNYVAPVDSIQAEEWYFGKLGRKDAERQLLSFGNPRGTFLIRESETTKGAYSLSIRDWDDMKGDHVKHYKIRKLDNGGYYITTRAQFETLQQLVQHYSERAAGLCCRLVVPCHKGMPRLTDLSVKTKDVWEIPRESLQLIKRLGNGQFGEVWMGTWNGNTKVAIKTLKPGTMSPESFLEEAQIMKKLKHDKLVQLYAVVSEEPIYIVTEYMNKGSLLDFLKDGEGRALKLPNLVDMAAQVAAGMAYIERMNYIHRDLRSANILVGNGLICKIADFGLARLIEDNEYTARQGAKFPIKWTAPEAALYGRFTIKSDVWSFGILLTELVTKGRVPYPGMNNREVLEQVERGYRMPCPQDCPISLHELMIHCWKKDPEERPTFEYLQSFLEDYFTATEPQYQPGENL
GSK3B (human), sequence (P49841 whole entry, looked up): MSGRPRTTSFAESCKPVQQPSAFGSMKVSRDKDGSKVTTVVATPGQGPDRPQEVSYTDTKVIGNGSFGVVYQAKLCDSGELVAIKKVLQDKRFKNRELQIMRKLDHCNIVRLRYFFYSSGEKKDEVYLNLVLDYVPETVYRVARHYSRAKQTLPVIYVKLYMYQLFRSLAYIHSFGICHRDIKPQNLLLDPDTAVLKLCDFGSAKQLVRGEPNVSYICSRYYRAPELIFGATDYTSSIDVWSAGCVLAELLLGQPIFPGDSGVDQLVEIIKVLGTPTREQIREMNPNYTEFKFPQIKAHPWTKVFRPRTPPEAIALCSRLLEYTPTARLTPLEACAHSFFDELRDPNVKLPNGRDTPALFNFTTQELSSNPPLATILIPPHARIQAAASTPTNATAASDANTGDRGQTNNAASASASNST
CAMK2A (human), sequence (Q9UQM7 whole entry, looked up): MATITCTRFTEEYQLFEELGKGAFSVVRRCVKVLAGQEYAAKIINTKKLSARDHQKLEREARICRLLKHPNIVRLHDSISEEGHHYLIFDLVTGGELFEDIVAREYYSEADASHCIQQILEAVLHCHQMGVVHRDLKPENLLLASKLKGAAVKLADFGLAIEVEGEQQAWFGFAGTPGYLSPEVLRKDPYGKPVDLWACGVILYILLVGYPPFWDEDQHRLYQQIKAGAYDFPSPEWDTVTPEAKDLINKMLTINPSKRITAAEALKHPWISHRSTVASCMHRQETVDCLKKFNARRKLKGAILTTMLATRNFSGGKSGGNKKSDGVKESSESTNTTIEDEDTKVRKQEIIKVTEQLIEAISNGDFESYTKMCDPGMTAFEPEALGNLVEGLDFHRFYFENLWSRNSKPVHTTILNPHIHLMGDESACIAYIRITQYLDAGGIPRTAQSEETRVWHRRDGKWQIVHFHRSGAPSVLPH
MARK1 (human), sequence (Q9P0L2 whole entry, looked up): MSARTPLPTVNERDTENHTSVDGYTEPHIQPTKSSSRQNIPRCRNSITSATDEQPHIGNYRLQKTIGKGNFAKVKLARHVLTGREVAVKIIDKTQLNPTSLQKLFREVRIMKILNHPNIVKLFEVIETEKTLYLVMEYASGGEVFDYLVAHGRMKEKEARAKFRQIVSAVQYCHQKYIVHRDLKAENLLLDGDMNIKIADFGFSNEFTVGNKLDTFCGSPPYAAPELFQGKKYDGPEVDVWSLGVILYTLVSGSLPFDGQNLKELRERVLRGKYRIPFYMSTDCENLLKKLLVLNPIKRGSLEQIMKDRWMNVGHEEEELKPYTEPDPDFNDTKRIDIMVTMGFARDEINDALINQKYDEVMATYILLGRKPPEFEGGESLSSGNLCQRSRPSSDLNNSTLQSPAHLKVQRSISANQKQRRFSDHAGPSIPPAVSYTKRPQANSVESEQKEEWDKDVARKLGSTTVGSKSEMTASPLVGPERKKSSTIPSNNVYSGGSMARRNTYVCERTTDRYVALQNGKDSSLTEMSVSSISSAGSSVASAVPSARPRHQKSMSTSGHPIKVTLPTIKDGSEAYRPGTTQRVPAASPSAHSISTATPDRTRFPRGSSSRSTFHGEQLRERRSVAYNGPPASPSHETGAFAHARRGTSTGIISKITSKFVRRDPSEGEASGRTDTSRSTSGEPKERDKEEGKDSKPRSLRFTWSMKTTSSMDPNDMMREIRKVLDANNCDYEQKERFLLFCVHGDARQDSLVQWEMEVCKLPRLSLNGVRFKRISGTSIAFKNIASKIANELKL
PAK4 (human), sequence (O96013 whole entry, looked up): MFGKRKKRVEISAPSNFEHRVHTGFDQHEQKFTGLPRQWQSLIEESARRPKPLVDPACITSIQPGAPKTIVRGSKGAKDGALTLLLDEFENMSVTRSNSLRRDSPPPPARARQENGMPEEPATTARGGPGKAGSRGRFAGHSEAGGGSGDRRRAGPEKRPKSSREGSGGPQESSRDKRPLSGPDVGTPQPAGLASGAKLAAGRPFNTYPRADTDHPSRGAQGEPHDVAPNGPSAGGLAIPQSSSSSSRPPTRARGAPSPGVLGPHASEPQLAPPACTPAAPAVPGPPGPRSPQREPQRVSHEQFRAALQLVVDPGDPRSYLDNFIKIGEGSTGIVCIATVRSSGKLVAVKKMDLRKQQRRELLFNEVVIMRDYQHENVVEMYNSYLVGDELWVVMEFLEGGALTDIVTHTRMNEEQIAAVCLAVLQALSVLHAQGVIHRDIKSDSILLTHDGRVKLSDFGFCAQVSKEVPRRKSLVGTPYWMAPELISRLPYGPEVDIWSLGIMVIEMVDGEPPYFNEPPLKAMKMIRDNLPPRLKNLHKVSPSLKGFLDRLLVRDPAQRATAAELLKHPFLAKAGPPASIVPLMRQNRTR
EPHB1 (human), sequence (P54762 whole entry, looked up): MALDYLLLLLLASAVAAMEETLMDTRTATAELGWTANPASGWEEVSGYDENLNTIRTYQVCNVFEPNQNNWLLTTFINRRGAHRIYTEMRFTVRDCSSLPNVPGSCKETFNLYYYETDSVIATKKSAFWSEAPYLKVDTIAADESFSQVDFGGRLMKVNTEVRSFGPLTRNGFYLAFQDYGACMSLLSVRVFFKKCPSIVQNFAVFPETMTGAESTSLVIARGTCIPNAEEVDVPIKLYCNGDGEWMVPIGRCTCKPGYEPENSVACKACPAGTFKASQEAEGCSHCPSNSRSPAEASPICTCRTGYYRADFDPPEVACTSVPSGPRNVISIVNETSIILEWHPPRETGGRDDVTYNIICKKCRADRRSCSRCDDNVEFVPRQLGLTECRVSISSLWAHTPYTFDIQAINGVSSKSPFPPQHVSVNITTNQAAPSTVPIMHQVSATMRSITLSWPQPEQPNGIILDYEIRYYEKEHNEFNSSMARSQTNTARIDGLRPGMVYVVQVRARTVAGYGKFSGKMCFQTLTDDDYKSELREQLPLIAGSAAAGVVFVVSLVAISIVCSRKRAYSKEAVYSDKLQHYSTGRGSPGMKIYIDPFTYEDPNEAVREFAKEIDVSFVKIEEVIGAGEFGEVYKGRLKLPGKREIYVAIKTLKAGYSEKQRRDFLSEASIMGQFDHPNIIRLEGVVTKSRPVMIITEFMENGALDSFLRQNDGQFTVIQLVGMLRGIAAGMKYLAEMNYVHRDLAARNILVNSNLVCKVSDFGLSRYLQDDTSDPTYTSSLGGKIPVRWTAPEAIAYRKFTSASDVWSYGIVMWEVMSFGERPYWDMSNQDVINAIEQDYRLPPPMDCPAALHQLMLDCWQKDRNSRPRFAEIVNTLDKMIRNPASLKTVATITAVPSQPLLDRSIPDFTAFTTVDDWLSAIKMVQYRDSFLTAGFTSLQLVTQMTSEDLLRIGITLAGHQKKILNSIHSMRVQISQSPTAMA
STK11 (human), sequence (Q15831 whole entry, looked up): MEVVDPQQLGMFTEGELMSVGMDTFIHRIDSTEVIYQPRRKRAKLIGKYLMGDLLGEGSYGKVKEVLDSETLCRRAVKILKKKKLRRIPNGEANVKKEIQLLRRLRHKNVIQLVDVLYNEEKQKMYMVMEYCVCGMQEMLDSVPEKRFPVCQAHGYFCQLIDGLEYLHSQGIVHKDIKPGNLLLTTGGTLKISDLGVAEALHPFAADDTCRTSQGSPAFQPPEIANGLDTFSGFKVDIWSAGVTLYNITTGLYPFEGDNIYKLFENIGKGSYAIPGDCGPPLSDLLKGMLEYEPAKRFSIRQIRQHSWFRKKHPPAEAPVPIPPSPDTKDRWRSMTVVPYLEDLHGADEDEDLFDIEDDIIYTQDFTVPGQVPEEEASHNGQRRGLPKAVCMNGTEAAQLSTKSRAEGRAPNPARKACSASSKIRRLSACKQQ
CDK8 (human), sequence (P49336 whole entry, looked up): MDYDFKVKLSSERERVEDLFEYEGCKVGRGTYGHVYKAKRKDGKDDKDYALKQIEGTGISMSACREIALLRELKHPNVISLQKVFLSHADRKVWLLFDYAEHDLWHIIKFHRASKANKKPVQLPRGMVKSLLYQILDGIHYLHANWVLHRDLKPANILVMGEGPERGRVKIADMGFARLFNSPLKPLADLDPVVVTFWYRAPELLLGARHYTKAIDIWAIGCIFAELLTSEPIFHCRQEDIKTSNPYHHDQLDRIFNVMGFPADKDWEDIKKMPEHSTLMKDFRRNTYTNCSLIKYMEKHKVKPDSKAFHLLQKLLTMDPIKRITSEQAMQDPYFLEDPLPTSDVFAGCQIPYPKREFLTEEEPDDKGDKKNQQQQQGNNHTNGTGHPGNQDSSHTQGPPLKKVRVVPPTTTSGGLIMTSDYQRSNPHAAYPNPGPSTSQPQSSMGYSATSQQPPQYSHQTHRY
PIM2 (human), sequence (Q9P1W9 whole entry, looked up): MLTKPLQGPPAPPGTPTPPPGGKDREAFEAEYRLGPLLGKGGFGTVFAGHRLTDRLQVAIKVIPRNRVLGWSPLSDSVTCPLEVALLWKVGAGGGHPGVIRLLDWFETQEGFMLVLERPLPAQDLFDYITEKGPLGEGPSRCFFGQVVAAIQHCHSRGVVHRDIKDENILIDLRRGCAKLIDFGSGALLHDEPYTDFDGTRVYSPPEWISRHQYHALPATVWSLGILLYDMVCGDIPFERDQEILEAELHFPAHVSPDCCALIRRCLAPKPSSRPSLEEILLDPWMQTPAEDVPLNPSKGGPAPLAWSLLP

Structure (SMILES)	kinase still bound, per cent of control [1] [%]	kinase still bound, per cent of control [2] [%]	kinase still bound, per cent of control [3] [%]	kinase still bound, per cent of control [4] [%]	kinase still bound, per cent of control [5] [%]	kinase still bound, per cent of control [6] [%]	kinase still bound, per cent of control [7] [%]	kinase still bound, per cent of control [8] [%]	kinase still bound, per cent of control [9] [%]	kinase still bound, per cent of control [10] [%]	kinase still bound, per cent of control [11] [%]	kinase still bound, per cent of control [12] [%]	kinase still bound, per cent of control [13] [%]	kinase still bound, per cent of control [14] [%]	kinase still bound, per cent of control [15] [%]	kinase still bound, per cent of control [16] [%]	kinase still bound, per cent of control [17] [%]	kinase still bound, per cent of control [18] [%]	kinase still bound, per cent of control [19] [%]	kinase still bound, per cent of control [20] [%]	also measured
C[C@@H](Oc1cc(-n2cnc3ccc(CN4CCN(C)CC4)cc32)sc1C(N)=O)c1ccccc1C(F)(F)F	40	100	100	4.9	7.3	95	100	95	77	89	99	31	100	100	100	74	86	83	59	100	kinase still bound, per cent of control [21]: 100%; kinase still bound, per cent of control [22]: 100%; kinase still bound, per cent of control [23]: 100%; kinase still bound, per cent of control [24]: 100%; kinase still bound, per cent of control [25]: 100%; kinase still bound, per cent of control [26]: 2.4%; kinase still bound, per cent of control [27]: 68%; kinase still bound, per cent of control [28]: 37%; kinase still bound, per cent of control [29]: 77%; kinase still bound, per cent of control [30]: 100%; kinase still bound, per cent of control [31]: 0.55%; kinase still bound, per cent of control [32]: 100%; kinase still bound, per cent of control [33]: 78%; kinase still bound, per cent of control [34]: 90%; kinase still bound, per cent of control [35]: 100%; kinase still bound, per cent of control [36]: 98%; kinase still bound, per cent of control [37]: 100%; kinase still bound, per cent of control [38]: 71%; kinase still bound, per cent of control [39]: 95%; kinase still bound, per cent of control [40]: 100%
O=C(NC1CC1)c1cccc(-c2ccc3c(NC(=O)C4CC4)n[nH]c3c2)c1	10	100	8.6	88	84	87	58	76	90	89	100	30	89	79	97	78	66	68	60	5	kinase still bound, per cent of control [21]: 2%; kinase still bound, per cent of control [22]: 95%; kinase still bound, per cent of control [23]: 96%; kinase still bound, per cent of control [24]: 96%; kinase still bound, per cent of control [25]: 69%; kinase still bound, per cent of control [26]: 80%; kinase still bound, per cent of control [27]: 61%; kinase still bound, per cent of control [28]: 79%; kinase still bound, per cent of control [29]: 100%; kinase still bound, per cent of control [30]: 78%; kinase still bound, per cent of control [31]: 100%; kinase still bound, per cent of control [32]: 100%; kinase still bound, per cent of control [33]: 84%; kinase still bound, per cent of control [34]: 45%; kinase still bound, per cent of control [35]: 89%; kinase still bound, per cent of control [36]: 88%; kinase still bound, per cent of control [37]: 100%; kinase still bound, per cent of control [38]: 51%; kinase still bound, per cent of control [39]: 42%; kinase still bound, per cent of control [40]: 84%
C=CC(=O)Nc1cc(NC(=O)c2ccc(C)c(NC(=O)c3ccno3)c2)cc(C(F)(F)F)c1	77	100	100	91	83	100	91	100	40	95	79	99	12	73	100	90	100	75	87	90	kinase still bound, per cent of control [21]: 0.5%; kinase still bound, per cent of control [22]: 97%; kinase still bound, per cent of control [23]: 100%; kinase still bound, per cent of control [24]: 100%; kinase still bound, per cent of control [25]: 100%; kinase still bound, per cent of control [26]: 100%; kinase still bound, per cent of control [27]: 84%; kinase still bound, per cent of control [28]: 93%; kinase still bound, per cent of control [29]: 96%; kinase still bound, per cent of control [30]: 40%; kinase still bound, per cent of control [31]: 94%; kinase still bound, per cent of control [32]: 82%; kinase still bound, per cent of control [33]: 97%; kinase still bound, per cent of control [34]: 100%; kinase still bound, per cent of control [35]: 100%; kinase still bound, per cent of control [36]: 100%; kinase still bound, per cent of control [37]: 100%; kinase still bound, per cent of control [38]: 100%; kinase still bound, per cent of control [39]: 77%; kinase still bound, per cent of control [40]: 100%
